In ChEMBL document CHEMBL2016481, “Cytotoxic cytochalasins from the endozoic fungus Phoma sp. of the giant jellyfish Nemopilema nomurai” (Bioorg Med Chem Lett, 2012):
pIC50: −log10 of the molar value. Activity calls are given as the source filed them. The rule behind the calls is not given here.

Key:
Format in all cases: functional, cell-based
[1] = tested on: XF498; experiment: Cytotoxicity against human XF498 cells after 48 hrs by SRB assay; conditions: XF498, 48 h
[2] = tested on: A549; experiment: Cytotoxicity against human A549 cells after 48 hrs by SRB assay; conditions: A549, 48 h
[3] = tested on: HCT-15; experiment: Cytotoxicity against human HCT15 cells after 48 hrs by SRB assay; conditions: HCT-15, 48 h
[4] = tested on: SK-OV-3; experiment: Cytotoxicity against human SKOV3 cells after 48 hrs by SRB assay; conditions: SK-OV-3, 48 h
[5] = tested on: SK-MEL-2; experiment: Cytotoxicity against human SK-MEL-2 cells after 48 hrs by SRB assay; conditions: SK-MEL-2, 48 h
[6] = tested on: HeLa; experiment: Cytotoxicity against human HeLa cells after 48 hrs by SRB assay
[7] = tested on: HeLa; experiment: Induction of mitochondrial apoptosis in human HeLa cells

| SMILES | pIC50 [1] | pIC50 [2] | pIC50 [3] | pIC50 [4] | pIC50 [5] | pIC50 [6] | inhibition [6] | Activity [7] |
| --- | --- | --- | --- | --- | --- | --- | --- | --- |
| CC1=C(C)[C@H]2[C@H](Cc3ccccc3)NC(=O)[C@]23OC(=O)/C=C/[C@H](O)CCC[C@@H](C)C/C=C/[C@H]3[C@@H]1O | 4.91 | 5.22 | 5.24 | 5.35 | 5.28 | – | – | – |
| C[C@H]1C/C=C/[C@H]2[C@@H]3O[C@]3(C)[C@@H](C)[C@H]3[C@H](Cc4ccccc4)NC(=O)[C@]32OC(=O)/C=C/CCCC1 | – | 4.91 | 5.41 | 5.38 | 5.08 | – | – | – |
| C=C1[C@@H](C)[C@H]2[C@H](Cc3ccccc3)NC(=O)[C@]23OC(=O)/C=C/[C@H](O)CCC[C@@H](C)C/C=C/[C@H]3[C@@H]1O [CYTOCHALASIN B] | 5.63 | 5.67 | 5.71 | 6.34 | 6.17 | 5.10 | Dose-dependent effect | Active |
| CC1=C(C)[C@H]2[C@H](Cc3ccccc3)NC(=O)[C@]23C(=O)/C=C/[C@H](O)CCC[C@@H](C)C/C=C/[C@H]3[C@@H]1O [DEOXAPHOMIN B] | – | 4.63 | 4.53 | 4.86 | 4.91 | – | – | – |
| CC1=C[C@@H]2/C=C/C[C@H](C)CCC[C@@H](O)/C=C/C(=O)[C@]23C(=O)N[C@@H](Cc2ccccc2)[C@@H]3[C@@H]1C [DEOXAPHOMIN C] | – | 5.07 | 5.07 | 5.26 | 5.18 | – | – | – |
| COc1cccc2c1C(=O)c1c(O)c3c(c(O)c1C2=O)C[C@@](O)(C(=O)CO)C[C@@H]3O[C@H]1C[C@H](N)[C@H](O)[C@H](C)O1 [DOXORUBICIN] | 7.82 | – | 7.46 | 8.70 | 8.70 | – | – | – |
